pKd: −log10 of the molar value.

Heat shock protein HSP 90-beta, sequence (P08238 whole entry): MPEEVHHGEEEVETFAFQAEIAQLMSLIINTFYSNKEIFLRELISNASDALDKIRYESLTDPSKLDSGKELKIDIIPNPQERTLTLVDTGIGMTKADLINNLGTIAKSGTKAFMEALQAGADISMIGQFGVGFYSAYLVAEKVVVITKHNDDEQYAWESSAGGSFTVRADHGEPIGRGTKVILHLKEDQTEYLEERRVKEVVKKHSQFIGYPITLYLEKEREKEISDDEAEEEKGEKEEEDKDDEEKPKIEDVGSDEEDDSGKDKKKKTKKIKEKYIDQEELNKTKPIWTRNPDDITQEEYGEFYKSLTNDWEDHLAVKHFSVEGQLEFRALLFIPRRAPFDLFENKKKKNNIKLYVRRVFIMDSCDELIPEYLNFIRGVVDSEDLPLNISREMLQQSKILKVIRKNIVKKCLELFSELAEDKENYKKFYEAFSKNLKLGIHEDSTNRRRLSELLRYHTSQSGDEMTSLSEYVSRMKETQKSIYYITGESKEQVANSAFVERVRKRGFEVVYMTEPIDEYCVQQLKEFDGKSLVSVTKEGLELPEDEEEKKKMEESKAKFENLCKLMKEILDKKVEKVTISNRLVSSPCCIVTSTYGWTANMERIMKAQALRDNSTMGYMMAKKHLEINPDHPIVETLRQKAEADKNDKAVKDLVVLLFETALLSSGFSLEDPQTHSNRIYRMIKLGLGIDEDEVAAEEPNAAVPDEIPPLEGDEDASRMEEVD

The assay addresses Heat shock protein HSP 90-beta (Homo sapiens, UniProt P08238). In words: Binding affinity to human recombinant HSP90.
One may read the pKd as −log10 of the Kd, conventionally taken in molar units. For `CO[C@H]1C=CC=C(C)C(=O)Nc2cc(O)c(N=CCN3CCCC3)c(c2O)C[C@@H](C)C[C@H](OC)[C@H](O)[C@@H](C)/C=C(\C)[C@@H]1OC(N)=O` [(8S,9S,12S,13R,14S,16R)-13-hydroxy-8,14-dimethoxy-4,10,12,16-tetramethyl-3,20,22-trioxo-19-(2-(pyrrolidin-1-yl)ethylamino)-2-azabicyclo[16.3.1]docosa-1(21),4,6,10,18-pentaen-9-yl carbamate], the pKd is 6.40.

`CO[C@H]1C[C@H](C)Cc2c(O)c(cc(O)c2N=CCF)NC(=O)C(C)=CC=C[C@H](OC)[C@@H](OC(N)=O)C(C)=C[C@H](C)C1N=O` (stereo partly drawn) [(8S,9S,12S,13E,14S,16R)-19-(2-fluoroethylamino)-13-(hydroxyimino)-8,14-dimethoxy-4,10,12,16-tetramethyl-3,20,22-trioxo-2-azabicyclo[16.3.1]docosa-1(21),4,6,10,18-pentaen-9-yl carbamate]: the pKd was less than 4.60.

Turning to `C=CCO/N=C1/[C@@H](OC)C[C@H](C)Cc2c(O)c(cc(O)c2N=CCN(C)C)NC(=O)C(C)=CC=C[C@H](OC)[C@@H](OC(N)=O)/C(C)=C/[C@@H]1C` [(8S,9S,12S,14S,16R)-13-(allyloxyimino)-19-(2-(dimethylamino)ethylamino)-8,14-dimethoxy-4,10,12,16-tetramethyl-3,20,22-trioxo-2-azabicyclo[16.3.1]docosa-1(21),4,6,10,18-pentaen-9-yl carbamate], the pKd is less than 4.00.

Regarding `CO[C@H]1C[C@H](C)Cc2c(O)c(cc(O)c2N=CCN(C)C)NC(=O)C(C)=CC=C[C@H](OC)[C@@H](OC(N)=O)/C(C)=C/[C@H](C)/C1=N\OCc1ccccc1`, the pKd was less than 4.00.

`CO[C@H]1C=CC=C(C)C(=O)Nc2cc(O)c(N=CCN(C)C)c(c2O)C[C@@H](C)C[C@H](OC)[C@H](NCCN(C)C)[C@@H](C)/C=C(\C)[C@@H]1OC(N)=O` [(8S,9S,12S,13R,14S,16R)-13,19-bis(2-(dimethylamino)ethylamino)-8,14-dimethoxy-4,10,12,16-tetramethyl-3,20,22-trioxo-2-azabicyclo[16.3.1]docosa-1(21),4,6,10,18-pentaen-9-yl carbamate]: the pKd was less than 4.30.

The record behind these values is BindingDB's records for doi:10.1021/jm900098v (Kosan Biosciences, 2009).
